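Grown in 96-well plates, cells were treated for 48 hours with each compound at five concentrations. Insufficient inhibition: endpoint recorded as highest concentration tested. Here, GI50 denotes the concentration required for 50% inhibition of growth. TGI: concentration producing complete growth inhibition.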
Key:
Assay in all cases: DTP human tumour cell line panel, 48 h
OVCAR-8 ovarian = tested on: OVCAR-8 ovarian
HT29 colon = tested on: HT29 colon
A549 NSCLC = tested on: A549 NSCLC
SNB-75 CNS = tested on: SNB-75 CNS
HCC-2998 colon = tested on: HCC-2998 colon
U251 CNS = tested on: U251 CNS
HCT-15 colon = tested on: HCT-15 colon
SK-MEL-28 melanoma = tested on: SK-MEL-28 melanoma
OVCAR-5 ovarian = tested on: OVCAR-5 ovarian
MDA-MB-231 breast = tested on: MDA-MB-231 breast

Structure (SMILES)	TGI (OVCAR-8 ovarian) [µM]	TGI (HT29 colon) [µM]	TGI (A549 NSCLC) [µM]	TGI (SNB-75 CNS) [µM]	TGI (HCC-2998 colon) [µM]	TGI (U251 CNS) [µM]	TGI (HCT-15 colon) [µM]	TGI (SK-MEL-28 melanoma) [µM]	TGI (OVCAR-5 ovarian) [µM]	TGI (MDA-MB-231 breast) [µM]	GI50 (U251 CNS) [µM]
Cc1ccc(S(=O)(=O)c2ccc(C)cc2[N+](=O)[O-])c([N+](=O)[O-])c1	> 100	> 100	> 100	> 100	> 100	> 100	> 100	> 100	> 100	–	–
Cc1c(-c2coc(-c3ccc([N+](=O)[O-])cc3)n2)c(=O)n(-c2ccccc2)n1C	> 100	> 100	> 100	> 100	> 100	> 100	> 100	> 100	> 100	–	–
O=C(c1ccccc1)c1ccc(N2C(=O)/C(=C/c3ccccc3S)N=C2c2ccccc2)c(N2C(=O)/C(=C/c3ccccc3S)N=C2c2ccccc2)c1	88.6	> 100	> 100	65.8	> 100	> 100	> 100	> 100	> 100	> 100	–
CCOC(=O)/C=C(/C(=O)OCC)n1ccc(=O)n(Cc2cn(CCCCOC(C)=O)nn2)c1=O	> 100	> 100	> 100	> 100	> 100	> 100	> 100	> 100	> 100	> 100	–
CCC1=CC(OCc2ccccc2)C(CCN(Cc2ccccc2)C(=O)OCc2ccccc2)C1 (centres undefined)	32.8	37.6	32.1	22.6	35.8	62	29.1	37.8	36.9	62.6	–
Cc1cn(C2CC(O)C(Cn3nncc3Cn3cnc4c(N)ncnc43)O2)c(=O)[nH]c1=O (centres undefined)	> 100	–	> 100	> 100	> 100	> 100	> 100	> 100	> 100	–	–
O=C(O)C12C3CCC(C3)C1(C(=O)O)C1CCC2C1 (centres undefined)	> 100	> 100	> 100	> 100	> 100	–	> 100	> 100	> 100	–	–
CN1CCS(=O)(=O)NC(Cc2ccccc2)C(=O)N2CCCC2C1=O (centres undefined)	> 100	> 100	> 100	> 100	> 100	> 100	> 100	> 100	> 100	–	–
C1CSCCSCCSCCSCCS1	> 100	> 100	> 100	> 100	> 100	> 100	> 100	> 100	> 100	> 100	–
Nc1ccc(-c2nc3ccccc3s2)cc1CO	> 100	> 100	> 100	> 100	> 100	> 100	> 100	> 100	> 100	> 100	–
COc1ccc2nc3c4c(nccc4c2c1)-c1ncccc1C3=O	6.55	1.14	0.338	0.378	0.805	1.75	0.069	0.655	2.1	3.94	–
O=c1[nH]c(=O)n([C@H]2C[C@@H](CO)[C@@H](O)C2)cc1I	> 100	> 100	> 100	> 100	> 100	> 100	> 100	> 100	> 100	–	–
COc1cc2ccnc(C#N)c2cc1OCc1ccccc1	> 100	> 100	> 100	66.3	> 100	> 100	> 100	> 100	> 100	–	–
O=C1CCC(=O)c2ccccc2N1	> 100	> 100	> 100	> 100	> 100	> 100	> 100	> 100	> 100	–	–
C1=NN2C(c3ccccc3)=NOC2C2C(c3ccccc3)=NOC12 (centres undefined)	> 100	–	> 100	> 100	> 100	–	> 100	–	> 100	> 100	–
O=C1CC(n2ccnc2)c2c(Cl)sc(Cl)c21 (centres undefined)	27.8	43.6	> 64.7	52	–	35.6	28.1	> 54.7	48.1	36.5	–
CN(C)CC1(Cc2ccccc2)CC/C(=C\c2ccccc2)C1=O (centres undefined)	> 100	52.6	> 100	> 100	40.7	> 100	42.1	> 100	> 100	–	–
CCOC(=O)c1c2ccccc2n2c(=O)n(-c3ccc(OC)cc3)nnc12	97.1	–	> 100	35.9	> 100	> 31.6	> 100	> 100	> 100	> 100	–
N#CCCC1(CCC#N)S(=O)(=O)OCCOS1(=O)=O	> 100	> 100	> 100	> 100	–	> 100	> 100	> 100	> 100	–	–
N#Cc1ccc(C2OCC3CC=CCC3CO2)cc1 (centres undefined)	> 100	> 100	> 100	> 100	> 100	> 100	> 100	> 100	> 100	–	–
O=C(Nn1c(-c2ccccc2)nc2ccccc2c1=O)c1cccc([N+](=O)[O-])c1	> 100	> 100	> 100	> 100	> 100	> 100	> 100	> 100	> 100	–	–
COC(=O)c1cc(/C=C/C(=O)Cc2ccccc2)cn1S(=O)(=O)c1ccccc1	> 100	> 100	> 100	> 100	> 100	–	> 100	–	> 100	> 100	–
Nc1c(F)c(F)c2c(c1F)N(CCCCCl)c1ccccc1S2	–	> 100	> 100	> 100	> 100	> 100	> 100	> 100	> 100	> 100	–
CCCCC/C=C\C=C\CCCCCCCCC(=O)OC	> 100	> 100	> 100	> 100	–	> 100	> 100	> 100	> 100	> 100	–

Structure (SMILES)	TGI (OVCAR-8 ovarian) [µM]	TGI (HT29 colon) [µM]	TGI (A549 NSCLC) [µM]	TGI (SNB-75 CNS) [µM]	TGI (HCC-2998 colon) [µM]	TGI (U251 CNS) [µM]	TGI (HCT-15 colon) [µM]	TGI (SK-MEL-28 melanoma) [µM]	TGI (OVCAR-5 ovarian) [µM]	TGI (MDA-MB-231 breast) [µM]	GI50 (U251 CNS) [µM]
c1ccc2cc(C3NCCc4[nH]cnc43)ccc2c1 (centres undefined)	> 100	> 100	> 100	> 100	> 100	> 100	> 100	> 100	> 100	–	–
c1ccc2c(c1)nc1ccccn12	> 100	> 100	> 100	> 100	> 100	> 100	> 100	> 100	> 100	–	–
CCOC(=O)/C(C1=NCCN1C)=C(\O)c1ccccc1	> 100	> 100	> 100	–	> 100	> 100	> 100	> 100	> 100	–	–
Cc1cc(NS(=O)(=O)c2ccc(NO)cc2)no1	> 100	> 100	> 100	> 100	> 100	–	> 100	> 100	> 100	> 100	–
COc1ccc(S(=O)(=O)N/N=C(\C)CN2C(=O)c3ccccc3C2=O)cc1OC	> 100	> 100	> 100	> 100	> 100	> 100	> 100	> 100	> 100	–	–
CO[P@@]1(=O)O[C@@H](c2ccccc2)[C@H](O)[C@@]1(O)c1ccccc1	> 100	> 100	> 100	> 100	–	> 100	> 100	> 100	> 100	> 100	–
CCC1(c2ccc(OC)c(OC)c2)CCN(S(=O)(=O)c2ccc(C)cc2)C1 (centres undefined)	–	> 100	> 100	> 100	> 100	> 100	> 100	> 10	> 100	> 100	–
Cc1cc2c(cc1Cl)SC(NNCCO)=NS2(=O)=O	> 100	> 100	–	> 100	> 100	> 100	> 100	> 100	–	> 100	–
Cc1cn(CC(=S)NCCc2c[nH]c3ccccc23)c(=O)[nH]c1=O	–	> 100	> 100	–	–	> 100	> 100	> 100	> 100	> 100	–
CC(CC(=O)N1C2CC3CCC2(CS1(=O)=O)C3(C)C)[Si](C)(C)C (centres undefined)	> 100	> 100	> 100	> 100	> 100	> 100	> 100	> 100	–	> 100	–
CC(=O)N1C(c2[nH]c3ccccc3c2Cc2ccccc2)CCN1c1ccccc1 (centres undefined)	> 10	> 10	> 10	> 10	> 10	–	> 10	> 10	> 10	> 10	–
COc1nc(=O)[nH]c2c1C(c1ccc([N+](=O)[O-])cc1)c1c(OC)nc(=O)[nH]c1O2	> 100	> 100	> 100	–	–	> 100	> 100	> 100	> 100	> 100	–
CC(C)CCNC(=O)c1ccc(CNC(=O)/C=C/c2ccc3ccccc3c2)cc1	> 100	–	> 100	> 100	> 100	> 100	> 100	> 100	> 100	> 100	–
N#CCCC(C#N)(C#N)CCC#N	> 100	> 100	> 100	–	> 100	> 100	> 100	> 100	–	–	–
COc1ccccc1N1CCN(S(=O)(=O)c2ccc(Cl)cc2)C1=N	> 100	–	> 100	> 100	–	> 100	> 100	> 100	> 100	> 100	–
O=c1cccccc1[O-].O=c1cccccc1[O-].O=c1cccccc1[O-].[Nd+3]	90.7	> 100	> 100	–	> 100	> 100	> 100	–	> 100	–	38.7
COP12(OC)NC(=O)OC1(C(F)(F)F)c1ccccc1O2 (centres undefined)	> 100	> 100	> 100	> 100	–	–	> 100	> 100	–	–	–
Cc1c2c(n3c(nc4ccccc43)c1C#N)N(c1ccc(F)cc1)CC2	> 100	> 100	> 100	> 100	> 100	> 100	> 100	> 100	> 100	–	–
Cc1ccccc1N(CCC#N)C1=NN(C(=O)CC(=O)Nc2ccc(Cl)cc2)C(c2ccccc2)C1 (centres undefined)	> 100	> 100	> 100	> 100	> 100	> 100	> 100	> 100	> 100	–	–
Cc1nc(C)c(N2CCN(Cc3ccccc3)CC2)c(=O)[nH]1	> 100	> 100	> 100	–	> 100	> 100	> 100	> 100	–	> 100	–
COc1cc(C2C(C(=O)NCc3ccccc3)=C(C)NC(C)=C2C(=O)NCc2ccccc2)ccc1O	> 100	38	> 100	> 100	51.6	83.2	> 100	> 100	> 100	–	–
CCOC(=O)c1ccc(N=C2Sc3nc4ccccc4n3C2=Nc2ccc(C(=O)OCC)cc2)cc1	89.7	> 100	69.8	–	> 100	–	> 100	> 100	> 100	52.5	–
CCCCCN1C(=O)C(Cc2ccccc2)N=C(c2ccc(O)cc2)c2cc(Cl)ccc21 (centres undefined)	25.8	25.6	31.7	23.7	–	27.2	21.2	29.7	48.3	35.9	–
